Read-outs that look alike come from different tables or passages of the source.
Tests used:
[1] = biological target: IMP-1 (Serratia marcescens, UniProt P52699); test: biochemical; format: biochemical; settings: fluorescence assay, CCF2-FA substrate, 2 pM enzyme, 2 hours at 25° C.; read-out: IMP-1 IC50
Method in brief: (§1)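 Fluorescence assay, CCF2-FA substrate (cephalosporin core linking 7-hydroxycoumarin to fluorescein); inhibitor + MBL + substrate, 2 h, 25° C. IC50 by 4-parameter fit, semi-log plot.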

[2] = biological target: NDM-1 (Klebsiella pneumoniae, UniProt C7C422); test: biochemical; format: biochemical; settings: fluorescence assay, CCF2-FA substrate, 1 pM enzyme, 2 hours at 25° C.; read-out: NDM-1 IC50
Method in brief: as §1

[3] = biological target: VIM-1 (Pseudomonas aeruginosa (strain ATCC 15692 / DSM 22644 / CIP 104116 / JCM 14847 / LMG 12228 / 1C / PRS 101 / PAO1), UniProt A0A0F7KYQ8); test: biochemical; settings: CCF2-FA substrate, 30 pM enzyme, 2 hours at 25° C.
Method in brief: as §1

[4] = tested on: Escherichia coli expressing NDM-1 (CLB30005, CLB30016); format: cell-based; settings: with imipenem 1 μg/ml; 95% inhibition of bacterial growth
Method in brief: (§2)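 Clinical strains grown overnight on blood agar at 35°C, colonies suspended in saline, diluted 1:100 into 1.1×CAMHB. Test compound titrated with imipenem at 1 μg/ml; incubated 22–24 h at 35°C, growth read by absorbance.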

[5] = tested on: Klebsiella pneumoniae expressing VIM-1 (IHMA599644); format: cell-based; settings: with imipenem 1 μg/ml; 95% inhibition of bacterial growth
Method in brief: as §2

[6] = tested on: Serratia marcescens expressing IMP-1 (CL5741); format: cell-based; settings: with imipenem 1 μg/ml; 95% inhibition of bacterial growth
Method in brief: as §2

[7] = tested on: Pseudomonas aeruginosa efflux+ (MB9798), IMP-1; format: cell-based; settings: concentration restoring susceptibility to imipenem at 2 μg/mL in the presence of a class A, C, D serine β-lactamase inhibitor closely related to relebactam
Method in brief: (§3)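 PAO1 pair, broth microdilution; fixed β-lactam (imipenem/ceftazidime) at ~CLSI breakpoint + fixed class A/C BLI for AmpC; serial MBLi titration; endpoint = MBLi conc. restoring susceptibility; MB9798:MB9799 ratio = efflux liability.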

[8] = tested on: Pseudomonas aeruginosa efflux− (MB9799), IMP-1; format: cell-based; settings: concentration restoring susceptibility to imipenem at 2 μg/mL in the presence of a class A, C, D serine β-lactamase inhibitor closely related to relebactam
Method in brief: as §3

[9] = tested on: Pseudomonas aeruginosa MB9798 vs MB9799; settings: ratio MITC95 PA_9798/MITC95 PA_9799
Method in brief: as §3

[10] = fluorescence assay, read-out: VIM-1 IC50

Chain of IMP-1 (P52699 whole entry, looked up, species assumed): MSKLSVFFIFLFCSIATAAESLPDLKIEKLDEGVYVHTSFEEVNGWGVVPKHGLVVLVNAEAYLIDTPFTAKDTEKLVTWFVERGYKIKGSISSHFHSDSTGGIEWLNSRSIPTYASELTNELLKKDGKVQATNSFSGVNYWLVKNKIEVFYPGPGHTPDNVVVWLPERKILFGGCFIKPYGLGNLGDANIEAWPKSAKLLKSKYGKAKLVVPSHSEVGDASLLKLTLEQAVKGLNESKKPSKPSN
Chain of NDM-1 (C7C422 whole entry, looked up, species assumed): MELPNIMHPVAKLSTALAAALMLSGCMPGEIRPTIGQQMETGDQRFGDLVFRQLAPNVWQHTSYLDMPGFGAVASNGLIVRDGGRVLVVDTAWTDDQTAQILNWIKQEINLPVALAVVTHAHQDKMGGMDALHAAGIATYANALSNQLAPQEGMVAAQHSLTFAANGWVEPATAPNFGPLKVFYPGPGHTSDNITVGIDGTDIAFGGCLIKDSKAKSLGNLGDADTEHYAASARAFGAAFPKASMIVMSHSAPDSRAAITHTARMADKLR

Row | SMILES | IC50 [1] [nM] | IC50 [2] [nM] | IC50 [3, 10] [nM] | Escherichia coli expressing NDM-1 (CLB30016) MITC95 [4] [µM] | Klebsiella pneumoniae expressing VIM-1 (IHMA599644) MITC95 [5] [µM] | Serratia marcescens expressing IMP-1 (CL5741) MITC95 [6] [µM] | P. aeruginosa expressing IMP-1, efflux + (MB9798) MITC95 [7] [µM] | P. aeruginosa expressing IMP-1, efflux − (MB9799) MITC95 [8] [µM] | Efflux ratio [9] | IC50 ([3]; VIM-1 IC50, fluorescence assay) [nM]
1 | Nc1nc2c(-c3ccc(S(=O)(=O)NCCO)c(S(N)(=O)=O)c3-c3nn[nH]n3)cccc2s1 [Example 144, 4-(2-aminobenzo[d]thiazol-4-yl)-N1-(2-hydroxyethyl)-3-(2H-tetrazol-5-yl)benzene-1,2-disulfonamide] | 0.288 | 0.0898 | 0.162 | 12.5 | 12.5 | 3.125 | 3.125 | 3.125 | 1.00 | –
2 | NCCNS(=O)(=O)c1ccc(-c2cccc3sc(N)nc23)c(-c2nn[nH]n2)c1S(N)(=O)=O [Example 145, 4-(2-aminobenzo[d]thiazol-4-yl)-N1-(2-aminoethyl)-3-(2H-tetrazol-5-yl)benzene-1,2-disulfonamide] | 0.221 | 0.0343 | 0.182 | 0.7813 | 1.563 | 0.7813 | 0.3906 | 0.7813 | 0.50 | –
3 | Nc1nc2c(-c3ccc(S(=O)(=O)NC4CNC4)c(S(N)(=O)=O)c3-c3nn[nH]n3)cccc2s1 [Example 146, 4-(2-aminobenzo[d]thiazol-4-yl)-N1-(azetidin-3-yl)-3-(2H-tetrazol-5-yl)benzene-1,2-disulfonamide] | 0.356 | 0.0372 | 0.224 | 3.125 | 1.563 | 0.7813 | 0.3906 | 0.7813 | 0.50 | –
4 | Nc1nc2c(-c3ccc(S(=O)(=O)N4CC(N)C4)c(S(N)(=O)=O)c3-c3nn[nH]n3)cccc2s1 [Example 147, 6-((3-aminoazetidin-1-yl)sulfonyl)-3-(2-aminobenzo[d]thiazol-4-yl)-2-(2H-tetrazol-5-yl)benzenesulfonamide] | 0.494 | 0.55 | 0.559 | 25 | 12.5 | 6.25 | 3.125 | 3.125 | 1.00 | –
5 | Nc1nc2c(-c3ccc(S(=O)(=O)N4CCC(N)CC4)c(S(N)(=O)=O)c3-c3nn[nH]n3)cccc2s1 [Example 148, 3-(2-aminobenzo[d]thiazol-4-yl)-6-((4-aminopiperidin-1-yl)sulfonyl)-2-(2H-tetrazol-5-yl)benzenesulfonamide] | 0.49 | 0.213 | 0.749 | 12.5 | 6.25 | 3.125 | 3.125 | 1.563 | 2.00 | –
6 | Nc1nc2c(-c3ccc(S(=O)(=O)NCC4(N)CC4)c(S(N)(=O)=O)c3-c3nn[nH]n3)cccc2s1 [Example 149, 4-(2-aminobenzo[d]thiazol-4-yl)-N1-((1-aminocyclopropyl)methyl)-3-(2H-tetrazol-5-yl)benzene-1,2-disulfonamide] | 0.993 | 0.216 | 0.739 | 12.5 | 6.25 | 6.25 | 3.125 | 3.125 | 1.00 | –
7 | CN(C)S(=O)(=O)c1ccc(-c2cccc3sc(N)nc23)c(-c2nn[nH]n2)c1S(N)(=O)=O [Example 151, 4-(2-aminobenzo[d]thiazol-4-yl)-N1,N1-dimethyl-3-(2H-tetrazol-5-yl)benzene-1,2-disulfonamide] | 2.43 | 5.94 | 9.22 | 12.5 | 50 | 6.25 | 50 | 3.125 | 16.00 | –
8 | CNS(=O)(=O)c1ccc(-c2cccc3sc(N)nc23)c(-c2nn[nH]n2)c1S(N)(=O)=O [Example 152, 4-(2-aminobezno[d]thiazol-4-yl)-N1-methyl-3-(2H-tetrazol-5-yl)benzene-1,2-disulfonamide] | 0.264 | 0.072 | 0.195 | 3.125 | 6.25 | 3.125 | 12.5 | 1.563 | 8.00 | –
9 | Nc1nc2c(-c3ccc(S(=O)(=O)NCC(=O)O)c(S(N)(=O)=O)c3-c3nn[nH]n3)cccc2s1 [Example 153, ((4-(2-aminobenzo[d]thiazol-4-yl)-2-sulfamoyl-3-(2H-tetrazol-5-yl)phenyl)sulfonyl)glycine] | 0.704 | 0.28 | – | 50 | 100 | 25 | 12.5 | 12.5 | 1.00 | 1.05
10 | Nc1nc2c(-c3ccc(S(=O)(=O)NC[C@@H](N)C(=O)O)c(S(N)(=O)=O)c3-c3nn[nH]n3)cccc2s1 [Example 154, (R)-2-amino-3-((4-(2-aminobenzo[d]thiazol-4-yl)-2-sulfamoyl-3-(2H-tetrazol-5-yl)phenyl)sulfonamido)propanoic acid] | 0.155 | 0.067 | 0.28 | 50 | 25 | 6.25 | 3.125 | 6.25 | 0.50 | –
11 | Nc1ccc(-c2ccc(S(N)(=O)=O)c(S(N)(=O)=O)c2-c2nn[nH]n2)cn1 [Example 155, 4-(6-Aminopyridin-3-yl)-3-(2H-tetrazol-5-yl)benzene-1,2-disulfonamide] | 0.658 | 1.64 | 0.804 | 0.0625 | 2.563 | 0.6406 | 6.25 | 1.281 | 4.88 | –
